# Measurements from patent publication US9763998B2, “Serpins: methods of therapeutic β-cell regeneration and function” (Joslin Diabetes Center, Inc., priority 2013, dated 2017).
# B1: SerpinB1: 42 kD serine peptidase inhibitor protein regulating neutrophil proteases; used as recombinant human SerpinB1 (protein, UniProt P30740 1-379, looked up)
# Leukocyte elastase inhibitor: MEQLSSANTRFALDLFLALSENNPAGNIFISPFSISSAMAMVFLGTRGNTAAQLSKTFHFNTVEEVHSRFQSLNADINKRGASYILKLANRLYGEKTYNFLPEFLVSTQKTYGADLASVDFQHASEDARKTINQWVKGQTEGKIPELLASGMVDNMTKLVLVNAIYFKGNWKDKFMKEATTNAPFRLNKKDRKTVKMMYQKKKFAYGYIEDLKCRVLELPYQGEELSMVILLPDDIEDESTGLKKIEEQLTLEKLHEWTKPENLDFIEVNVSLPRFKLEESYTLNSDLARLGVQDLFNSSKADLSGMSGARDIFISKIVHKSFVEVNEEGTEAAAATAGIATFCMLMPEENFTADHPFLFFIRHNSSGSILFLGRFSSP
# Tests used:
# [1] = system: freshly isolated primary mouse islets (β-cells); experiment: Primary mouse islet β-cell proliferation by Ki67 immunofluorescent staining (SerpinB1, ovalbumin, Sivelestat); assay type: cell-based
# Text: To test whether SerpinB1 is a β-cell growth factor, we cultured freshly isolated primary mouse islets in presence of various doses of recombinant human SerpinB1 or ovalbumin (SerpinB14) and evaluated β-cell proliferation by Ki67 immunofluorescent staining (known to those of ordinary skill in the art). […] A major substrate of SerpinB1 is neutrophil elastase. To investigate whether the proliferative action of SerpinB1 is mediated by antagonizing neutrophil elastase activity, we assessed the ability of the neutrophil elastase inhibitor, Sivelestat (Sivelestat is the International Nonproprietary Name (INN) as given by the World Health Organization (WHO); the chemical name is: N-{2-[({4-[(2,2-dimethylpropanoyl)oxy]phenyl}sulfonyl)amino]benzoyl}glycine), to stimulate islet β-cell proliferation in vitro.
# In all experiments, cell counting was manually performed in a blinded fashion by a single observer. BrdU+ or Ki67+β cells were assessed by immunofluorescence microscopy. Insulin+ cells showing nuclear DAPI staining were considered as β cells. Insulin+ cells showing nuclear colocalized staining for DAPI+ and Ki67+ (or BrdU+) were counted as proliferating β cells. The double-positive cells (Ins+/BrdU+ or Ins+/Ki67+) were confirmed in randomly selected cells in all experiments by confocal microscopy.
# [2] = system: human (EndoC-βH1) β-cells; experiment: Ki67 positive human β-cells (EndoC-βH1) with Sivelestat; assay type: cell-based; settings: 100 μg/ml; compared to non-treated cells
# [3] = 1 μg/ml, SerpinB1 compared to islets cultured at a similar concentration of ovalbumin
Molecule,number of proliferating insulin+ cells ([1]; higher doses (e.g. 10 and 50 μg/ml)),"islet β-cell proliferation in vitro ([1]; low doses (1 and 5 μg/ml), FIG. 12)",number of Ki67 positive β-cells [2],"Ki67+ insulin+ cells (β-cell proliferation) [1, 3]",Ki67+ insulin+ cells (β-cell proliferation) ([1]; isolated mouse islets cultured with various doses of recombinant SerpinB1)
"CC(C)(C)C(=O)Oc1ccc(S(=O)(=O)Nc2ccccc2C(=O)NCC(=O)O)cc1 [Sivelestat, N-{2-[({4-[(2,2-dimethylpropanoyl)oxy]phenyl}sulfonyl)amino]benzoyl}glycine]",substantial increase,do not enhance β-cell proliferation,increased,,
"ovalbumin: ovalbumin (SerpinB14), control protein for SerpinB1 in islet culture",,,,normal low β-cell proliferation,
B1,,,,reached statistical significance,dose-dependent increase
